In PMC12042115 (mLife, 2025):
Like-named read-outs stand apart in the source and are kept apart here.

System: wild‐type BCG cells
Assay type: cell-based, M. bovis BCG
Conditions: for Mean Ratio: GDI5755_2d vs DMSO_2d; for Mean Ratio / Mean Ratio (GDI5755_2d vs DMSO_2d): up-regulated; for Mean_Ratio (GDI5755_3d vs DMSO_3d): down-regulated, 3 d; for Mean Ratio (GDI5755_2d vs DMSO_2d): 2d

For `O=C(Oc1ccc(Cl)cc1)c1ccc(N2CCOCC2)c([N+](=O)[O-])c1` [GDI‐5755], the “Mean Ratio” value (protein A1KKK9 Transcriptional regulator MraZ) was 1.25, the “Mean_Ratio (GDI5755_3d vs DMSO_3d)” value (protein A1KKR8, BCG_2242 (Rv2225), 3-methyl-2-oxobutanoate hydroxymethyltransferase) was 0.748 and the “Mean_Ratio (GDI5755_3d vs DMSO_3d)” value (protein A1KLF3, BCG_2477c (Rv2457c), ATP-dependent Clp protease ATP-binding subunit ClpX) was 0.743. For the same compound, the “Mean_Ratio (GDI5755_3d vs DMSO_3d)” value (protein A1KLT2, BCG_2607c (Rv2584c), Adenine phosphoribosyltransferase) was 0.7, the “Mean_Ratio (GDI5755_3d vs DMSO_3d)” value (protein A1KMA6, BCG_2781c (Rv2764c), Thymidylate synthase) was 0.7 and the “Mean Ratio (GDI5755_2d vs DMSO_2d)” value (protein A1KNI8 UPF0182 protein BCG_3215c) was 1.34. For the same compound, the “Mean Ratio” value (protein A1KNQ0 Adenosylhomocysteinase) was 1.26, the “Mean_Ratio (GDI5755_3d vs DMSO_3d)” value (protein A1KQ47, BCG_3775c (Rv3715c), Recombination protein RecR) was 0.7 and the “Mean Ratio (GDI5755_2d vs DMSO_2d)” value (protein BCG_0095 A1KEN2 UPF0182 protein) was 1.41. The “Mean Ratio (GDI5755_2d vs DMSO_2d)” value (protein BCG_0108c A0A0H3M9Q4 Probable oxidoreductase) was 1.77, the “Mean Ratio (GDI5755_2d vs DMSO_2d)” value (protein BCG_0130 A0A0H3M0N8 Possible oxidoreductase) was 1.72 and the “Mean Ratio (GDI5755_2d vs DMSO_2d)” value (protein BCG_0132 A0A0H3M2I5 Possible fatty-acid-CoA ligase fadD10) was 1.49. For the same compound, the “Mean Ratio (GDI5755_2d vs DMSO_2d)” value (protein BCG_0178 A0A0H3M7D0 DNA glycosylase) was 1.58, the “Mean Ratio (GDI5755_2d vs DMSO_2d)” value (protein BCG_0181 A1KEW5 Putative S-adenosyl-L-methionine-dependent methyltransferase) was 2.17 and the “Mean Ratio (GDI5755_2d vs DMSO_2d)” value (protein BCG_0182 A1KEW6 Putative S-adenosyl-L-methionine-dependent methyltransferase) was 2.71. The “Mean Ratio (GDI5755_2d vs DMSO_2d)” value (protein BCG_0228 A0A0H3MA02 Probable conserved integral membrane protein) was 1.46, the “Mean Ratio (GDI5755_2d vs DMSO_2d)” value (protein BCG_0248 A1KF31 Phosphoenolpyruvate carboxykinase [GTP],pckG) was 1.87 and the “Mean Ratio (GDI5755_2d vs DMSO_2d)” value (protein BCG_0282c A0A0H3M7K8 Probable acyl-CoA dehydrogenase fadE5) was 1.45. For the same compound, the “Mean Ratio (GDI5755_2d vs DMSO_2d)” value (protein BCG_0289c A0A0H3MA45 HSP20 family protein/ Heat stress induced ribosome-binding protein A,acr2) was 3.46, the “Mean Ratio (GDI5755_2d vs DMSO_2d)” value (protein BCG_0353 A0A0H3M1Y1 Transmembrane protein) was 1.84 and the “Mean Ratio (GDI5755_2d vs DMSO_2d)” value (protein BCG_0380 A0A0H3MAC3 Isoniazid inductible gene protein iniB) was 1.73. The “Mean Ratio (GDI5755_2d vs DMSO_2d)” value (protein BCG_0389 A1KFH2 Chaperone protein DnaK) was 1.52, the “Mean Ratio (GDI5755_2d vs DMSO_2d)” value (protein BCG_0390 A1KFH3 Protein GrpE) was 1.53 and the “Mean Ratio (GDI5755_2d vs DMSO_2d)” value (protein BCG_0391 A0A0H3M380 Chaperone protein DnaJ) was 1.51. For the same compound, the “Mean Ratio (GDI5755_2d vs DMSO_2d)” value (protein BCG_0422c A0A0H3M7W9 Chaperone protein ClpB) was 1.56, the “Mean Ratio (GDI5755_2d vs DMSO_2d)” value (protein BCG_0465c A0A0H3M812 Possible transmembrane protein) was 1.45 and the “Mean Ratio (GDI5755_2d vs DMSO_2d)” value (protein BCG_0490c A0A0H3M1K6 Probable conserved membrane protein mmpS4) was 1.45. For the same compound, the “Mean Ratio (GDI5755_2d vs DMSO_2d)” value (protein BCG_0494c A0A0H3M296 DUF5078 domain-containing protein) was 1.52, the “Mean Ratio (GDI5755_2d vs DMSO_2d)” value (protein BCG_0507 A0A0H3M3L9 isocitrate lyase) was 1.56 and the “Mean Ratio (GDI5755_2d vs DMSO_2d)” value (protein BCG_0517 A0A0H3M881 Possible conserved transmembrane protein) was 1.43. The “Mean Ratio (GDI5755_2d vs DMSO_2d)” value (protein BCG_0565 A0A0H3M3T9 Probable gaba permease gabP (4-amino butyrate transport carrier)) was 1.46, the “Mean Ratio (GDI5755_2d vs DMSO_2d)” value (protein BCG_0578c A0A0H3M3U8 1,4-dihydroxy-2-naphthoate octaprenyltransferase) was 1.66 and the “Mean Ratio (GDI5755_2d vs DMSO_2d)” value (protein BCG_0605c A1KG37 2-heptyl-1-hydroxyquinolin-4(1H)-one methyltransferase) was 2.76. The “Mean Ratio (GDI5755_2d vs DMSO_2d)” value (protein BCG_0614 A0A0H3M8E5 DUF1918 domain-containing protein) was 1.43, the “Mean Ratio (GDI5755_2d vs DMSO_2d)” value (protein BCG_0623c A0A0H3M1W6 PE-PGRS family protein) was 1.87 and the “Mean Ratio (GDI5755_2d vs DMSO_2d)” value (protein BCG_0725c A0A0H3MAX0 Probable conserved transmembrane transport protein mmpL5) was 1.69. The “Mean Ratio (GDI5755_2d vs DMSO_2d)” value (protein BCG_0727 A0A0H3M257 Transcriptional regulator) was 1.43, the “Mean Ratio (GDI5755_2d vs DMSO_2d)” value (protein BCG_0761 A0A0H3M268 Possible arylsulfatase atsA) was 1.61 and the “Mean Ratio (GDI5755_2d vs DMSO_2d)” value (protein BCG_0776c A1KGK7 Putative S-adenosyl-L-methionine-dependent methyltransferase BCG_0776c) was 1.55. For the same compound, the “Mean Ratio (GDI5755_2d vs DMSO_2d)” value (protein BCG_0835 A0A0H3M322 Deacetylase) was 1.55, the “Mean Ratio (GDI5755_2d vs DMSO_2d)” value (protein BCG_0883 A1KGW3 Putative S-adenosyl-L-methionine-dependent methyltransferase BCG_0883) was 1.87 and the “Mean Ratio (GDI5755_2d vs DMSO_2d)” value (protein BCG_0969 A0A0H3M4Q4 Possible glycine betaine transport integral membrane protein betP) was 1.64. The “Mean Ratio (GDI5755_2d vs DMSO_2d)” value (protein BCG_1053 A0A0H3M3P8 Uncharacterized protein) was 1.56, the “Mean Ratio (GDI5755_2d vs DMSO_2d)” value (protein BCG_1115 A0A0H3M9F1 Uncharacterized protein) was 1.90 and the “Mean Ratio (GDI5755_2d vs DMSO_2d)” value (protein BCG_1130 A0A0H3M9G5 Probable conserved transmembrane protein) was 1.64. For the same compound, the “Mean Ratio (GDI5755_2d vs DMSO_2d)” value (protein BCG_1191 A0A0H3M5B0 2-methylcitrate dehydratase) was 1.57, the “Mean Ratio (GDI5755_2d vs DMSO_2d)” value (protein BCG_1249 A0A0H3M3D0 L-glutamate gamma-semialdehyde dehydrogenase) was 1.49 and the “Mean Ratio (GDI5755_2d vs DMSO_2d)” value (protein BCG_1281 A0A0H3M3F3 Alternative RNA polymerase sigma factor sigE) was 1.41. The “Mean Ratio (GDI5755_2d vs DMSO_2d)” value (protein BCG_1309c A0A0H3M3H0 Possible membrane protein) was 1.44, the “Mean Ratio (GDI5755_2d vs DMSO_2d)” value (protein BCG_1334 A0A0H3M3I9 Lipoprotein lprC) was 1.55 and the “Mean Ratio (GDI5755_2d vs DMSO_2d)” value (protein BCG_1404c A0A0H3M3N1 Conserved membrane protein) was 1.78. For the same compound, the “Mean Ratio (GDI5755_2d vs DMSO_2d)” value (protein BCG_1574c A0A0H3M689 Probable conserved transmembrane transport protein mmpL12) was 1.47, the “Mean Ratio (GDI5755_2d vs DMSO_2d)” value (protein BCG_1609 A0A0H3M480 Probable conserved transmembrane transport protein mmpL6) was 1.85 and the “Mean Ratio (GDI5755_2d vs DMSO_2d)” value (protein BCG_1660c A0A0H3M5A2 Probable integral membrane cytochrome D ubiquinol oxidase (Subunit II) cydB) was 1.42. The “Mean Ratio (GDI5755_2d vs DMSO_2d)” value (protein BCG_1661c A0A0H3M4E4 Probable integral membrane cytochrome D ubiquinol oxidase (Subunit I) cydA) was 1.57, the “Mean Ratio (GDI5755_2d vs DMSO_2d)” value (protein BCG_1890c A0A0H3MB87 Type II NADH dehydrogenase Ndh/Rv1854c) was 1.53 and the “Mean Ratio (GDI5755_2d vs DMSO_2d)” value (protein BCG_2010c A0A0H3M561 DUF1490 family protein) was 1.88. For the same compound, the “Mean Ratio (GDI5755_2d vs DMSO_2d)” value (protein BCG_2056c A0A0H3MBM9 Possible conserved transmembrane protein) was 1.52, the “Mean Ratio (GDI5755_2d vs DMSO_2d)” value (protein BCG_2072c A0A0H3M7M3 Probable transmembrane protein) was 2.05 and the “Mean Ratio (GDI5755_2d vs DMSO_2d)” value (protein BCG_2419c A0A0H3M8K8 Probable conserved lipoprotein lppR) was 1.48. The “Mean Ratio (GDI5755_2d vs DMSO_2d)” value (protein BCG_2583 A0A0H3M7F6 Probable proline and glycine rich transmembrane protein) was 1.73, the “Mean Ratio (GDI5755_2d vs DMSO_2d)” value (protein BCG_2657 A0A0H3M963 Archease domain-containing protein) was 1.52 and the “Mean Ratio (GDI5755_2d vs DMSO_2d)” value (protein BCG_2934c A0A0H3M896 Possible D-amino acid aminohydrolase) was 1.77. The “Mean Ratio (GDI5755_2d vs DMSO_2d)” value (protein BCG_2965 A0A0H3MDP7 Probable transposase for insertion sequence element IS1533) was 2.65, the “Mean Ratio (GDI5755_2d vs DMSO_2d)” value (protein BCG_3007c A0A0H3M7X4 DNA-binding protein HupB) was 1.45 and the “Mean Ratio (GDI5755_2d vs DMSO_2d)” value (protein BCG_3038 A0A0H3MA42 Probable lipoprotein lpqA) was 1.97.
